Where two headings read alike, the source gives them in different places.
Key:
reserpine-induced ptosis = assay: Reserpine-induced ptosis in the rat; type: in vivo, male rats of the CF1 strain; details: reserpine 5 mg/kg i.p., score scale 0-4, mean to 6th hour vs controls
Description: (§2) The thymoanaleptic properties of the compounds of the invention were determined by means of reserpine-induced ptosis and hypothermia in the rat.
An intraperitoneal dose of 5 mg/kg of reserpine was administered to batches of 5 male rats of the CF1 strain weighing an average of 300 g.
Thirty minutes later a dose of the compound to be studied was given by oral route and the inhibitory effect of the reserpine was noted every hour up to the sixth hour. Ptosis was evaluated for each eye in accordance with the following scale:
4 : eyelids completely closed.
The difference between these two averages represents the average decrease of the ptosis in the treated animals as compared to the controls.

[1] = system: reserpine-induced hypothermia; assay: Reserpine-induced hypothermia in the rat; type: in vivo, male rats CF1; details: reserpine 5 mg/kg i.p., mean to 6th hour vs controls
Description: as §2
An intraperitoneal dose of 5 mg/kg of reserpine was administered to batches of 5 male rats CF1 weighing an average of 300 g. Thirty minutes later, the rectal temperature was determined and then a dose of the compound to be tested was given by oral route, except to the control animals. The rectal temperature of all the animals including the controls was taken every hour up to the 6th hour.
The difference between these two averages enabled an estimation to be made regarding the antagonistic effect of the compounds of the invention on the hypothermia induced by reserpine.

toxicity of yohimbine = assay: Potentiation of the toxicity of yohimbine (test of QUINTON); type: in vivo, male mice; details: for mortality at 50 mg/kg: Mus musculus, 50 mg/kg oral, yohimbine hydrochloride 25 mg/kg i.p., mortality after 24 hours
Description: Yohimbine is a substance which provokes an increase in the serotonine level in the brain or a decrease in norepinephrine according to the author.
For this purpose, the test of QUINTON was used which is described in Brit. J. Pharmacol. 21, 51 (1963). […] […] The percentage of mortality was noted after 24 hours.
Table III hereunder expresses the percentage of potentiation of the toxicity due to yohimbine in comparison with the controls.
The percentage in question was determined 24 hours after the administration of yohimbine.

[2] = system: stereotypies induced by amphetamine; assay: Potentiation of the stereotypies induced by amphetamine; type: in vivo, rats
Description: It is commonly admitted that amphetamine induces stereotypies by stimulating the dopaminergic receptors and inhibiting the re-uptake of dopamine into the neuron.
The thymoanaleptics potentiate these stereotypies.
Thirty minutes later, a dose of 10 mg/kg of the compound to be tested was given by oral route. Note was taken of the intensity of the stereotypies every 30 minutes for 150 minutes in accordance with the following scale which indicates the behaviour of the animal.
0 : the rat is motionless and asleep
1 : the rat is motionless and awake
3 : the rat stands on its hind paws and sniffs the lid of its cage in a stereotyped manner.
4 : the rat licks the walls of its cage in a stereotyped manner
5 : the rat bites the bars of its cage or sniffs the shavings of its litter in a stereotyped manner
6 : the rat chews the shavings in a stereotyped manner
The average of the 5 results obtained for each batch was calculated and compared with the average obtained with the control animals.
The difference between these averages represents the mean increase of the steroetypies of the treated animals in comparison with the controls.

[3] = system: aggressivity of killer rats; assay: Aggressivity of killer rats; type: in vivo, male rats; details: for inhibition in vivo at 20 mg/kg: 20 mg/kg i.p.
Description: If, under certain conditions, male rats are kept alone in individual cages for several weeks, the become spontaneously aggressive towards any mouse, which they kill as soon as it is placed in the same cage. Mice were introduced one after another into cages containing an isolated rat and a selection was made of the rats which immediately killed three mice. In this way batches of 6 to 8 rats were constituted. The rats were then given the compound to be studied by intraperitoneal route in such a way that each batch received a higher dose than the preceding batch. […] Table V which follows contains the results obtained 30 minutes after administration of the compound to be studied.

spontaneous motricity = assay: Spontaneous motricity in the mouse; type: in vivo; details: for influence on spontaneous motricity: 50 mg/kg intragastric
Description: Tests were also performed with a view to determining whether the compounds of the invention modify spontaneous motricity.

[4] = Toxicity, method of KARBER and BEHRENS, mice; details: mouse, in vivo; for LD50 at 48 h: mice, after 48 hours
Description: (§1) Finally, tests of toxicity were performed with compounds of the invention following the method of KARBER and BEHRENS.

neuromuscular functions = assay: Rotarod test of BOISSIER / neuromuscular functions; type: in vivo, mouse
[5] = Toxicity, method of KARBER and BEHRENS, rats; details: rat, in vivo; for LD50 at 48 h: rats, after 48 hours
Description: as §1

[6] = system: aggressivity of isolated mice; assay: Aggressivity of isolated mice; type: in vivo, male mouse; details: for ED50: Mus musculus, read-out: ED50, inhibition of aggressivity
Description: If a male mouse is kept alone in a cage for 3 weeks to 1 month, it will spontanesouly attack any other animal of the same species which is placed in the same cage. If the other animal has also been isolated under the same conditions a series of fights takes place.
Mice were isolated for the period of time required to render them spontaneously aggressive. Couples were then put together and note was taken of the number of fights which took place over a period of 3 minutes. Each batch was composed of four pairs of mice.
The animals of each batch were then treated by intragastric route with the compound to be studied which was administered in such a way that each batch received a higher dose than the preceding batch. […]
The results were expressed in the percentage of decrease in the number of fights between the animals after treatment in comparison with the percentage obtained before treatment which represents the percentage of inhibition of aggressivity.

[7] = system: cholinergic effects provoked by tremorine; assay: Cholinolytic properties: action with respect to tremorine; type: in vivo, male mice of the OF1 strain; details: tremorine 10 mg/kg, difference vs controls
Description: When injected into mice, tremorine and its metabolite, oxotremorine, produce central cholinergic effects, i.e. normal and provoked tremor as well as peripheral cholinergic effects i.e. weeping, sweating diarrhoea and salivation.
Male mice of the OF1 strain weighing 22 g, were divided into batches of 10. Each batch with the exception of the control animals, received, by oral route, a dose of the compound to be tested.
Thirty minutes later, 10 mg/kg of tremorine were administered to all the batches and thirty minutes after the injection of tremorine note was taken of the cholinergic effects on each animal in accordance with the following scale: […]

[8] = system: contractile reaction of the nictitating membrane; assay: Ganglioplegic activity on the anesthetized cat (nictitating membrane); type: in vivo; details: intravenous 0.005, 0.1 and 1 mg/kg
Description: The tonus of the nictitating membrane was first noted after which the contractile reaction of the membrane to electric stimulation of the preganglionic fibre of the cervical sympathetic nerve was tested.

[9] = system: peripheral noradrenergic processes; details: intravenous route; cited from earlier work
[10] = 10 mg/kg oral, amphetamine 10 mg/kg i.p., every 30 min for 150 min
[11] = Rattus norvegicus, ip, 0.5 h, 30 minutes after administration

CC(Oc1cccc2occc12)C(N)=NO (stereo not drawn) [Compound 3, 2-(4-Benzofuryloxy)-propionamidoxime]
Average decrease of Ptosis (reserpine-induced ptosis; 10 mg/kg oral): 2.1
Average inhibition of hypothermia (positive °C) ([1]; 20 mg/kg oral): 1 °C
mortality at 50 mg/kg (toxicity of yohimbine): 40%
Average increase of the stereotypies [2, 10]: 8.6
inhibition in vivo at 20 mg/kg [3, 11]: 89%
influence on spontaneous motricity (spontaneous motricity; mouse): no influence on the spontaneous motricity
LD50 at 48 h ([4]; ip, intraperitoneal): 68 mg/kg

CC(Oc1cccc2ccoc12)C(N)=NO (stereo not drawn) [Compound 2, 2-(7-Benzofuryloxy)-propionamidoxime]
Average decrease of Ptosis (reserpine-induced ptosis; 10 mg/kg oral): 2.4
Average inhibition of hypothermia (positive °C) ([1]; 100 mg/kg oral): 0.8 °C
mortality at 50 mg/kg (toxicity of yohimbine): 50%
Average increase of the stereotypies ([2]; 0.05 mg/kg intragastric, 150 minutes): 9
Average increase of the stereotypies [2, 10]: 9
inhibition in vivo at 20 mg/kg [3, 11]: 50%
influence on spontaneous motricity (spontaneous motricity; mouse): no influence on the spontaneous motricity
damage to the neuromuscular functions (neuromuscular functions; up to 40 mg/kg oral, for 3 hours after administration): did not cause any damage to the neuromuscular functions up to 40 mg/kg
LD50 at 48 h ([4]; ip, intraperitoneal): 68 mg/kg
LD50 at 48 h ([4]; oral): 170 mg/kg
LD50 at 48 h ([5]; ip, intraperitoneal): 62.5 mg/kg
LD50 at 48 h ([5]; oral): 440 mg/kg

CC(Oc1cccc2ccccc12)C(N)=NO (stereo not drawn) [Compound 1, 2-(1-Naphthyloxy)-propionamidoxime]
Average decrease of Ptosis (reserpine-induced ptosis; 10 mg/kg oral): 1.7
Average inhibition of hypothermia (positive °C) ([1]; 10 mg/kg oral): 0.7 °C
Potentiation of the toxicity of yohimbine (toxicity of yohimbine; 20 mg/kg, same conditions (yohimbine hydrochloride 25 mg/kg i.p.; 24 hours)): 50%
Average increase of the stereotypies [2, 10]: 1
inhibition in vivo at 3 mg/kg ([3]; Rattus norvegicus, ip, 0.5 h, 3 mg/kg i.p., 30 minutes after administration): 100%
antiaggressive properties ([3]; conclusion from Table V): powerful antiaggressive properties
ED50 ([6]; po, 1.5 h, intragastric route, 90 minutes after administration): 0.42 mg/kg
ED50 ([6]; oral route): 0.63 mg/kg
Central response tremor: Normal ([7]; 5 mg/kg oral): 0
Central response tremor: Provoked ([7]; 5 mg/kg oral): 0
Peripheral cholinergic response: Salivat. ([7]; 5 mg/kg oral): 0
Peripheral cholinergic response: Sweating ([7]; 5 mg/kg oral): 0
Peripheral cholinergic response: Weeping ([7]; 5 mg/kg oral): 0
effect on curiosity of the animal (spontaneous motricity; 3 mg/kg intragastric, mouse): without, however modifying the curiosity of the animal
reduction of spontaneous motricity (spontaneous motricity; 3 mg/kg intragastric, mouse, 30 minutes after administration): 50%
sedation at doses active against aggressivity (spontaneous motricity; conclusion from ratio of doses): not sedative at the doses which are active against aggressivity
neurotoxic dose 50 (NTD 50) relative to ED50 (isolated mouse) (neuromuscular functions; 30 minutes after oral administration, mouse): sufficiently far removed from the ED50
intensity of the contractions of the nictitating membrane (ganglioplegic effect) [8]: did not modify the intensity of the contractions of the membrane
LD50 at 24 h ([4]; po): 380 mg/kg
LD50 at 24 h ([5]; ip): 50 mg/kg
LD50 at 24 h ([5]; po): 108 mg/kg

CN(C)CCCN1c2ccccc2CCc2ccccc21 [imipramine, 5-(3-dimethylaminopropyl)-10,11-dihydro-5H-dibenz [b,f] azepine, reference compound]
Average decrease of Ptosis (reserpine-induced ptosis; 20 mg/kg oral): 1.6
Average inhibition of hypothermia (positive °C) ([1]; 10 mg/kg oral): 0.4 °C
mortality at 50 mg/kg (toxicity of yohimbine): 50%
Average increase of the stereotypies ([2]; 5 mg/kg, same conditions (intragastric), 150 minutes): 4.4
Average increase of the stereotypies ([2]; 20 mg/kg, same conditions (amphetamine 10 mg/kg i.p.)): 6
inhibition in vivo at 20 mg/kg [3, 11]: 45%
inhibition of aggressivity ([6]; 20 mg/kg): 78%
dose of imipramine giving the same activity as Compound 1 ([6]; relative to 0.42 mg/kg of Compound 1, intragastric, 90 minutes): twenty-times greater
Central response tremor: Normal ([7]; 20 mg/kg oral): -4
Central response tremor: Provoked ([7]; 20 mg/kg oral): -0.4
Peripheral cholinergic response: Salivat. ([7]; 20 mg/kg oral): 0
Peripheral cholinergic response: Sweating ([7]; 20 mg/kg oral): -2
Peripheral cholinergic response: Weeping ([7]; 20 mg/kg oral): -0.8
dose potentiating the peripheral effects of exogenous norepinephrine [9]: ≥ 1 mg/kg

From patent US3984470A, “Amidoxime derivatives and process for preparing the same” (priority 1974, dated 1976)
